Key:
[1] = test system: human mixed lymphocyte reaction; assay: human mixed lymphocyte reaction (inhibition of 3H-thymidine incorporation); format: cell-based; conditions: for EC50: concentration which brings about 50% inhibition of ^3H-thymidine incorporation, read-out: Immunosuppressive activity ED50; for immunosuppressive activity compared with azathioprine: statement in words; for inhibition at 25 µM: Concentration of Solution 25 µM; for inhibition at 10 µM: Concentration of Solution 10 µM
Text: Fifteen of these compounds were screened for immunosuppressive activity by means of the human mixed lymphocyte reaction, which is well known and need not be further described here, the results of which are shown in Table 1.

With `Cn1cnc([N+](=O)[O-])c1Sc1ncnc2[nH]c(O)nc12` [Compound 11] as the compound, how does the EC50 ([1]; Homo sapiens, Lymphocyte) read?
Its EC50 is 24 µM.

What about the “immunosuppressive activity compared with azathioprine” value [1] of the same compound?
Its value is “less immunosuppressive than azathioprine”.

What about the “toxicity to lymphocytes compared with azathioprine” value (lymphocytes) of the same compound?
Its value is “much less toxic to the lymphocytes”.

For `Cn1cnc([N+](=O)[O-])c1Sc1ccccn1` [Compound 15], which inhibition at 25 µM ([1]; Homo sapiens, Lymphocyte) is on record?
Its inhibition at 25 µM is 76%.

With `CCn1c(C)nc([N+](=O)[O-])c1Sc1nc(C)cc(C)n1` [Compound 18] as the compound, how does the inhibition at 25 µM ([1]; Homo sapiens, Lymphocyte) read?
The inhibition at 25 µM was 47%.

Which inhibition at 25 µM ([1]; Homo sapiens, Lymphocyte) does the source give for `CCOC(=O)CSc1c([N+](=O)[O-])ncn1C` [Compound 30] here?
The inhibition at 25 µM was 65%.

`COc1ccc(OC)c2[nH]c(Sc3c([N+](=O)[O-])ncn3C)nc12` [Compound 6] was tested. Which inhibition at 25 µM ([1]; Homo sapiens, Lymphocyte) did it give?
The inhibition at 25 µM was 41%.

How did the inhibition at 25 µM ([1]; Homo sapiens, Lymphocyte) turn out when `Cn1cnc([N+](=O)[O-])c1Sc1ncccn1` [Compound 16] was run?
Its inhibition at 25 µM is 47%.

How did the inhibition at 10 µM ([1]; Homo sapiens, Lymphocyte) turn out when `Cn1ccnc1Sc1c([N+](=O)[O-])ncn1C` [Compound 22] was run?
The inhibition at 10 µM was 82%.

What about the EC50 ([1]; Homo sapiens, Lymphocyte) of the same compound?
Its EC50 is 3.15 µM.

And the “immunosuppressive activity compared with azathioprine” value [1]?
The value was “substantially more immunosuppressive than azathioprine”.

And the “toxicity to lymphocytes compared with azathioprine” value (lymphocytes)?
The value was “considerably less toxic to lymphocytes”.

How did the inhibition at 25 µM ([1]; Homo sapiens, Lymphocyte) turn out when `Cn1cnc([N+](=O)[O-])c1Sc1nc2ccccc2s1` [Compound 9] was run?
The inhibition at 25 µM was 27%.

`Cn1cnc([N+](=O)[O-])c1Sc1nc2ccccc2o1` [Compound 8] was tested. Which inhibition at 25 µM ([1]; Homo sapiens, Lymphocyte) did it give?
Its inhibition at 25 µM is 87%.

`Cn1cnc([N+](=O)[O-])c1Sc1nc2ccccc2[nH]1` [Compound 1] was tested. Which inhibition at 36 µM ([1]; Homo sapiens, Lymphocyte, Concentration of Solution 36 µM) did it give?
The inhibition at 36 µM was 98%.

For `Cn1cnc([N+](=O)[O-])c1Sc1ncc[nH]1` [Compound 21], which inhibition at 10 µM ([1]; Homo sapiens, Lymphocyte) is on record?
The inhibition at 10 µM was 89%.

What about the EC50 ([1]; Homo sapiens, Lymphocyte) of the same compound?
The EC50 was 2.8 µM.

What about the “immunosuppressive activity compared with azathioprine” value [1] of the same compound?
The value was “substantially more immunosuppressive than azathioprine”.

And the “toxicity to lymphocytes compared with azathioprine” value (lymphocytes)?
Its value is “considerably less toxic to lymphocytes”.

`Cn1cnc([N+](=O)[O-])c1Sc1nccc(O)n1` [Compound 19] was tested. Which inhibition at 25 µM ([1]; Homo sapiens, Lymphocyte) did it give?
Its inhibition at 25 µM is 29%.

`COc1cc2nc(Sc3c([N+](=O)[O-])ncn3C)[nH]c2cc1OC` [Compound 5] was tested. Which inhibition at 25 µM ([1]; Homo sapiens, Lymphocyte) did it give?
Its inhibition at 25 µM is 94%.

`Cn1cnc([N+](=O)[O-])c1Sc1ccccc1C(=O)O` [Compound 13] was tested. Which inhibition at 25 µM ([1]; Homo sapiens, Lymphocyte) did it give?
Its inhibition at 25 µM is 34%.

For `Cn1cnc([N+](=O)[O-])c1Sc1ncnc2nc[nH]c12` [I (azathioprine), azathioprine, reference compound], which inhibition at 25 µM ([1]; Homo sapiens, Lymphocyte) is on record?
The inhibition at 25 µM was 79%.

And the EC50 ([1]; Homo sapiens, Lymphocyte)?
Its EC50 is 7.9 µM.

What about the “Toxicity LD25” value (lymphocytes; human) of the same compound?
The value was 42.5.

What about the “Therapeutic index ED50/LD25” value (lymphocytes; ratio of toxicity and immunosuppressive activity) of the same compound?
The value was 5.38.

With `Cc1ccc2[nH]c(Sc3c([N+](=O)[O-])ncn3C)nc2c1` [Compound 2] as the compound, how does the inhibition at 25 µM ([1]; Homo sapiens, Lymphocyte) read?
The inhibition at 25 µM was 86%.

With `Cn1cnc([N+](=O)[O-])c1Sc1nc2cc(F)c(Cl)cc2[nH]1` [Compound 4] as the compound, how does the inhibition at 50 µM ([1]; Homo sapiens, Lymphocyte, Concentration of Solution 50 µM) read?
The inhibition at 50 µM was 59%.
